Results published in DBAASP.
Values after ≈ are worked out from the molar mass of the structure shown. Values joined by “and” are separate entries in the source; they are usually repeats but may differ in a detail not shown here. Identical values can stand only once.

Legend:
Experiment in all cases: ≥ marks a high value that may be exact or a test limit, other limits are often not marked, values filed in µg/mL are converted to µM
[1] = system: Pseudomonas aeruginosa ATCC 27853
[2] = system: Escherichia coli ATCC 25922
[3] = system: Candida albicans ATCC 90028
[4] = system: Staphylococcus aureus ATCC 29213
[5] = system: Staphylococcus aureus ATCC 6538
[6] = system: Staphylococcus aureus ATCC 25923
[7] = system: Bacillus subtilis ATCC 6633
Bacillus subtilis = system: Bacillus subtilis
Escherichia coli = system: Escherichia coli
[8] = system: Candida albicans ATCC 2002
[9] = system: Pseudomonas aeruginosa PAO1

Compound CC[C@H](C)[C@H](NC(=O)[C@H](CCCN=C(N)N)NC(=O)[C@@H](N)CCCCN)C(=O)N[C@@H](C)C(=O)N[C@@H](CCC(N)=O)C(=O)N[C@@H](CCCN=C(N)N)C(=O)N[C@H](C(=O)N[C@@H](CCCCN)C(=O)N[C@@H](CC(=O)O)C(=O)N[C@@H](Cc1ccccc1)C(=O)N[C@@H](CC(C)C)C(=O)N[C@@H](CCCN=C(N)N)C(=O)O)[C@@H](C)CC [KRIAQRIKDFLR] has an MIC [1] of 10 µM (≈ 15.4 µg/mL), an MIC [2] of 3.24 µM (≈ 5 µg/mL) and an MIC [3] of no less than 40 µM. It also gave an MIC [4] of 20 µM (≈ 30.9 µg/mL).
In the case of CC[C@H](C)[C@H](NC(=O)[C@H](CCCN=C(N)N)NC(=O)[C@H](CCC(N)=O)NC(=O)[C@H](CCCCN)NC(=O)[C@@H](NC(=O)[C@H](CCCN=C(N)N)NC(=O)[C@@H](N)CCCCN)[C@@H](C)CC)C(=O)N[C@@H](CCCCN)C(=O)N[C@@H](CC(=O)O)C(=O)N[C@@H](Cc1ccccc1)C(=O)N[C@@H](CC(C)C)C(=O)N[C@@H](CCCN=C(N)N)C(=O)O [KRIKQRIKDFLR], the MIC [1] is reported as 5 µM (≈ 8 µg/mL), the MIC [2] is reported as 2.5 µM (≈ 4 µg/mL) and the MIC [3] is reported as 20 µM (≈ 32 µg/mL). For the same compound, the MIC [4] was 20 µM (≈ 32 µg/mL).
With CC(C)C[C@@H]1NC(=O)CNC(=O)[C@H]([C@@H](C)O)NC(=O)[C@@H]2CCCN2C(=O)[C@H](CC(C)C)NC(=O)CNC(=O)[C@H](CC(N)=O)NC(=O)[C@H](CC(N)=O)NC(=O)[C@H](Cc2ccc(O)cc2)NC(=O)[C@H](C(C)C)NC(=O)[C@H](CCCN=C(N)N)NC(=O)[C@@H](NC(=O)[C@H](CCCN=C(N)N)NC(=O)[C@H](Cc2cnc[nH]2)NC(=O)[C@H](CCCCN)NC(=O)[C@H](CCCCN)NC(=O)[C@H](CCCN=C(N)N)NC(=O)[C@@H](N)CCCCN)CSSC[C@@H](C(N)=O)NC(=O)[C@H](Cc2c[nH]c3ccccc23)NC(=O)[C@H](CCCN=C(N)N)NC(=O)[C@H](Cc2ccc(O)cc2)NC1=O [KRKKHRCRVYNNGLPTGLYRWC] the MIC [5] was 1.1 µM (≈ 3.02 µg/mL).
In the case of CC(C)C[C@H](NC(=O)CNC(=O)[C@H](C)NC(=O)[C@@H](NC(=O)[C@H](CC(N)=O)NC(=O)[C@H](CO)NC(=O)[C@H](CC(C)C)NC(=O)[C@@H](N)CC(C)C)C(C)C)C(=O)N[C@@H](CC(C)C)C(=O)N[C@@H](CCCCN)C(=O)N[C@@H](CCC(N)=O)C(=O)N[C@@H](Cc1ccccc1)C(=O)N[C@@H](C)C(=O)N[C@@H](CCCCN)C(=O)O [LLSNVAGLLKQFAK], the MIC [1] is reported as 42.6 µM (≈ 64 µg/mL), the MIC [6] is reported as 85.2 µM (≈ 128 µg/mL) and the MIC [2] is reported as 5.33 µM (≈ 8 µg/mL). The MIC [7] was no less than 85.2 µM.
Compound CC[C@H](C)[C@H](NC(=O)[C@H](CO)NC(=O)[C@H](C)NC(=O)[C@@H](NC(=O)[C@H](CCCCN)NC(=O)[C@H](CCCCN)NC(=O)[C@H](Cc1c[nH]c2ccccc12)NC(=O)[C@@H](N)CC(N)=O)[C@@H](C)CC)C(=O)NCC(=O)N[C@@H](CCCCN)C(=O)N[C@@H](CCC(=O)O)C(=O)N[C@H](C(=O)N[C@@H](CC(C)C)C(=O)N[C@@H](CCCCN)C(=O)N[C@@H](C)C(=O)N[C@@H](CC(C)C)C(N)=O)C(C)C [NWKKIASIGKEVLKAL] has an MIC (Bacillus subtilis) of no less than 46 µM and an MIC (Escherichia coli) of 21 µM (≈ 37.7 µg/mL).
For CC[C@H](C)[C@H](NC(=O)[C@H](C)NC(=O)[C@H](CCCN=C(N)N)NC(=O)[C@H](Cc1ccc(O)cc1)NC(=O)[C@H](CC(C)C)NC(=O)[C@H](CC(N)=O)NC(=O)[C@H](Cc1ccc(O)cc1)NC(=O)CNC(=O)[C@H](C)NC(=O)[C@@H](NC(=O)[C@@H](NC(=O)[C@@H](NC(=O)[C@H](CCCN=C(N)N)NC(=O)[C@@H](NC(=O)[C@@H](NC(=O)[C@@H](NC(=O)[C@@H]1CCCN1C(=O)[C@H](Cc1c[nH]c2ccccc12)NC(=O)[C@H](Cc1ccccc1)NC(=O)[C@H](CCCN=C(N)N)NC(=O)[C@H](CCCCN)NC(=O)[C@@H](NC(=O)[C@@H](N)CCCN=C(N)N)[C@@H](C)CC)C(C)C)C(C)C)[C@@H](C)CC)[C@@H](C)O)C(C)C)C(C)C)C(=O)N[C@@H](CCCCN)C(=O)N[C@@H](CCCCN)C(=O)O [RIKRFWPVVIRTVVAGYNLYRAIKK], the MIC (Bacillus subtilis) was 1.54 µM (≈ 4.69 µg/mL), the MIC [8] was 0.769 µM (≈ 2.34 µg/mL) and the MIC [6] was 3.08 µM (≈ 9.38 µg/mL). It also gave an MIC [2] of 1.15 µM (≈ 3.52 µg/mL).
CC[C@H](C)[C@H](NC(=O)[C@@H](NC(=O)[C@@H](NC(=O)[C@@H]1CCCN1C(=O)[C@H](Cc1c[nH]c2ccccc12)NC(=O)[C@H](Cc1ccccc1)NC(=O)[C@H](CCCN=C(N)N)NC(=O)[C@H](CCCCN)NC(=O)[C@@H](NC(=O)[C@@H](N)CCCN=C(N)N)[C@@H](C)CC)C(C)C)C(C)C)C(=O)N[C@@H](CCCN=C(N)N)C(=O)N[C@H](C(=O)N[C@H](C(=O)N[C@H](C(=O)N[C@@H](C)C(=O)NCC(=O)N[C@@H](Cc1ccc(O)cc1)C(=O)N[C@@H](CC(N)=O)C(=O)N[C@@H](CC(C)C)C(=O)N[C@@H](Cc1ccc(O)cc1)C(=O)O)C(C)C)C(C)C)[C@@H](C)O [RIKRFWPVVIRTVVAGYNLY] showed an MIC [8] of no less than 45.9 µM and an MIC [2] of 61.2 µM (≈ 150 µg/mL).
With CC(C)C[C@H](NC(=O)[C@H](C)NC(=O)[C@H](Cc1c[nH]c2ccccc12)NC(=O)CNC(=O)[C@H](CCCN=C(N)N)NC(=O)[C@@H](N)CCCN=C(N)N)C(=O)N[C@@H](CCCN=C(N)N)C(=O)N[C@@H](CC(C)C)C(=O)N[C@H](C(=O)N[C@@H](CC(C)C)C(=O)N[C@@H](C)C(=O)N[C@@H](Cc1ccc(O)cc1)C(N)=O)C(C)C [RRGWALRLVLAY] the MIC [9] was 26 µM and 30 µM.
